Data from paper PMC4754833, “Rilpivirine analogs potently inhibit drug-resistant HIV-1 mutants” (Retrovirology, 2016).

Legend:
HIV-1 RT mutant G190A = experiment: single round infection assay, G190A; format: cell-based; details: Human immunodeficiency virus 1
[1] = tested on: HIV-1 RT mutant E138K/M184V; experiment: single round infection assay, E138K/M184V; format: cell-based; details: for fold-change of IC50 of the mutant relative to WT: E138K/M184V vs WT; for IC50: ± SD, n=4
Description: (§1) The human osteosarcoma cell line, HOS, was obtained from Dr. Richard Schwartz (Michigan State University, East Lansing, MI) and grown in Dulbecco’s modified Eagle’s medium (Invitrogen, Carlsbad, CA) supplemented with 5 % (v/v) fetal bovine serum, 5 % newborn calf serum, and penicillin (50 units/ml) plus streptomycin (50 µg/ml; Quality Biological, Gaithersburg, MD). Virion production and single-round infectivity assays were used to determine antiviral activity (IC50 values) of the compounds as previously described.
(§2) pNLNgoMIVR-ΔEnv.LUC has been described previously. The RT open reading frame was removed from pNLNgoMIVR-ΔEnv.LUC (digestion with SpeI and SalI) and inserted between the SpeI and SalI sites of pBluescript II KS+. Using that construct as the wild-type template, we prepared the following HIV-1 RT mutants using the QuikChange II XL (Stratagene, La Jolla, CA) site-directed mutagenesis protocol kit: L100I, K103N, Y181C, Y188L, H221Y, K103N/Y181C, G190A, G190S, M230L, P236L, L100I/K103N, K103N/P225H, V106A/G190A/F227L, V106A, L234I, V106A/F227L, V106A/L234I, V106A/F227L/L234I, E40K, D67E, K101E, V111A, E138K, M184I, M184V, K101E/M184I, K101E/M184V, E138K/M184I, E138K/M184V, K101P, Y181I, and K101P/V179I. The following sense oligonucleotides were used with matching cognate antisense oligonucleotides (not shown) (Integrated DNA Technologies, Coralville, IA) in the mutagenesis: L100I, 5′-[…]-3′; L100I 2-103, 5′-[…]-3′; K103N, 5′-[…]-3′; Y181C, 5′-[…]-3′; Y188L, 5′-[…]-3′; H221Y, 5′-[…]-3′; G190A, 5′-[…]-3′; G190S, 5′-[…]-3′; P225H, 5′-[…]-3′; F227, 5′-[…]-3′; M230L, 5′-[…]-3′; P236L, 5′-[…]-3′; V106A, 5′-[…]-3′; L234I, 5′-[…]-3′; E40K, 5′-[…]-3′; D67E, 5′-[…]-3′; K101E, 5′-[…]-3′; V111A, 5′-[…]-3′; E138K, 5′-[…]-3′; M184I, 5′-[…]-3′; M184V, 5′-[…]-3′; K101P, 5′-[…]-3′; Y181I, 5′-[…]-3′; K101P/V179I, 5′-[…]-3′. The double mutants K103N/Y181C, K103N/P225H, and L100I/K103N were made using the previously generated K103N mutant and the appropriate oligonucleotides to add the second mutation, Y181C, P225, and L100I respectively. The double mutants V106A/F227L and V106A/L234I were prepared using the previously generated V106A mutant and the appropriate oligonucleotides to add the second mutation, F227L and L234I, respectively. The double mutants K101E/M184I and K101E/M184V were constructed using the previously generated K101E mutant and the appropriate oligonucleotides to add the second mutation, M184I and M184V, respectively. The double mutants E138K/M184I and E138K/M184V were constructed using the previously generated E138K mutant and the appropriate oligonucleotides for the second mutation, M184I and M184V, respectively. The triple mutant V106A/F227L/L234I was made using the previously generated V106A/F227L double mutant and the appropriate oligonucleotides for the third mutation, L234I. The triple mutant V106A/G190A/F227L was constructed in a series of steps using the previously generated V106A mutant and the appropriate oligonucleotides for the second mutation, G190A, to generate the double mutant V106A/G190A, and then the triple mutant was made using double mutant V106A/G190A and oligonucleotides for the third mutation, F227L. The DNA sequence of each construct was verified by DNA sequence determination. The sequences encoding the mutant RTs were then subcloned into pNLNgoMIVR-ΔEnv.LUC (between the KpnI and SalI sites) to produce the mutant HIV-1 constructs. These DNA sequences were also checked independently by DNA sequence determination.
(§3) 10.1186/s12977-016-0244-2 The IC50 values (nM) of RPV and the RPV analogs were determined against the NNRTI resistant mutants were measured by using a single round infection assay, n = 4. The concentrations (nM) are measured by reductions in luciferase reporter activity followed by the standard deviations. […]

HIV-1 RT mutant M230L = experiment: single round infection assay, M230L; format: cell-based; details: for IC50: ± SD, n=4, limit of detection 100 nM; for fold-change of IC50 of the mutant relative to WT: M230L vs WT
HIV-1 RT mutant L100I = tested on: HIV-1 RT mutant L100I; set-up: method as in PMID 23217210; details: previous study; cited from earlier work
HIV-1 RT mutant K103N = tested on: HIV-1 RT mutant K103N; set-up: method as in PMID 23217210; details: previous study; cited from earlier work
[2] = tested on: HIV-1 RT mutant K101E/M184I; experiment: single round infection assay, K101E/M184I; format: cell-based; details: for fold-change of IC50 of the mutant relative to WT: K101E/M184I vs WT
Description: as §1, §2, §3

[3] = tested on: HIV-1 RT mutant L100I/K103N; experiment: single round infection assay, L100I/K103N; format: cell-based; details: for IC50: Human immunodeficiency virus 1, L100I/K103N, ± SD, n=4, limit of detection 100 nM; for fold-change of IC50 of the mutant relative to WT: L100I/K103N vs WT
Description: as §1, §2, §3

HIV-1 RT mutant K101P = experiment: single round infection assay, K101P; format: cell-based; details: Human immunodeficiency virus 1
[4] = tested on: HIV-1 RT mutant K101P/V179I; experiment: single round infection assay, K101P/V179I; format: cell-based; details: Human immunodeficiency virus 1
WT HIV-1 = details: previous study; cited from earlier work
[5] = tested on: HIV-1 RT mutant K103N/P225H; experiment: single round infection assay, K103N/P225H; format: cell-based; details: for IC50: Human immunodeficiency virus 1; for fold-change of IC50 of the mutant relative to WT: K103N/P225H vs WT
HIV-1 RT mutant E138K = experiment: single round infection assay, E138K; format: cell-based; details: for fold-change of IC50 of the mutant relative to WT: E138K vs WT; for IC50: ± SD, n=4
HIV-1 RT mutant K101E = experiment: single round infection assay, K101E; format: cell-based; details: for IC50: Human immunodeficiency virus 1, K101E, ± SD, n=4; for fold-change of IC50 of the mutant relative to WT: K101E vs WT
Description: as §1, §2, §3

[6] = Human immunodeficiency virus 1, E138K/M184V
[7] = Human immunodeficiency virus 1, M230L
[8] = Human immunodeficiency virus 1, E138K

Row | Compound | IC50 (HIV-1 RT mutant G190A) | fold-change of IC50 of the mutant relative to WT [1] | IC50 [1, 6] | IC50 (HIV-1 RT mutant M230L; [7]) | fold-change of IC50 of the mutant relative to WT (HIV-1 RT mutant M230L) | IC50 (HIV-1 RT mutant L100I) | IC50 (HIV-1 RT mutant K103N) | fold-change of IC50 of the mutant relative to WT [2] | IC50 [3] | fold-change of IC50 of the mutant relative to WT [3] | IC50 (HIV-1 RT mutant K101P) | IC50 [4] | IC50 (WT HIV-1) | IC50 [5] | fold-change of IC50 of the mutant relative to WT [5] | fold-change of IC50 of the mutant relative to WT (HIV-1 RT mutant E138K) | IC50 (HIV-1 RT mutant E138K; [8]) | IC50 (HIV-1 RT mutant K101E) | fold-change of IC50 of the mutant relative to WT (HIV-1 RT mutant K101E) | also measured
1 | Cc1cc(/C=C/C#N)cc(C)c1Nc1nc(Nc2ccc(F)cc2)c2nc[nH]c2n1 [compound 17] | 1.6 ± 0.3 nM | < 2 | 2.3 ± 0.02 nM | 21.1 nM | 10 | < 7 nM | < 7 nM | 7 | 63.4 nM | 29 | 100 nM | > 100 nM | < 7 nM | 3.4 ± 0.2 nM | < 2 | 6 | 13.5 nM | 8.9 nM | 4 | IC50 ([2]; Human immunodeficiency virus 1, K101E/M184I, ± SD, n=4): 15 nM
2 | Cc1cc(/C=C/C#N)cc(C)c1Nc1nc(Nc2ccc3scnc3c2)c2nc[nH]c2n1 [compound 21] | 0.3 ± 0.12 nM | 6 | < 2.5 nM | < 6.1 nM | 15 | < 7 nM | < 7 nM | 2 | 37.6 nM | 92 | > 100 nM | > 100 nM | < 7 nM | 1.4 ± 0.07 nM | 3 | 6 | < 2.5 nM | 3.9 ± 0.14 nM | 10 | IC50 ([1]; E138K/M184V): 2.3 ± 0.7 nM; IC50 (HIV-1 RT mutant M230L; M230L): 6.1 ± 0.14 nM; IC50 (HIV-1 RT mutant E138K; E138K): 2.4 ± 0.4 nM
